Laboratory results as given in publication PMC10115881, “Disrupting the α-synuclein-ESCRT interaction with a peptide inhibitor mitigates neurodegeneration in preclinical models of Parkinson’s disease” (Nature Communications, 2023).
Several values for one entry are separate records, joined by “and”; a condition that tells them apart may be missing. Equal entries are not always repeated.

Assays:
V1S/SV2 a-syn rats = test: AAV-V1S/SV2 a-syn oligomer rat model; assay type: in vivo
Procedure: Adult female Sprague-Dawley rats (250–280 g; Envigo) were pair-housed in cages with wood bedding and had access to food and water ad libitum. The animal colony was maintained in a regular 12 h light/dark cycle. All procedures were approved by the University Health Network Animal Care Committee in accordance with guidelines and regulations set by the Canadian Council on Animal Care (AUP #3818).
Animals were secured in a stereotactic frame under isoflurane/oxygen anesthesia and ketoprofen (5 mg/kg) analgesia. The surgical site was shaved and sterilized with iodine/betadine prior to making a 2 cm incision along the midline. The scalp was exposed and a unilateral injection targeting the SN was performed at coordinates AP −5.2 mm, ML −2 mm and DV −7.5 mm with respect to the bregma as a point of reference. For each animal, a total volume of 2 μl of virus was injected at a rate of 0.5 μl/min using a microinjection pump and 10 μl Hamilton syringe with a 26-gauge needle. […] At the end of virus injection, the needle remained in place for 5 min before gradual removal.
Sections were then incubated in blocking solution (1% or 2% BSA, 10% normal goat serum in PBS-T) for 1 h. After blocking, sections were incubated with primary antibodies in antibody solution (2% normal goat serum in PBS-T) overnight at RT. Sections were then washed in PBS or PBS-T and incubated with secondary antibodies diluted in antibody solution for 1 h in the dark at room temperature. Sections were then mounted onto glass slides and allowed to dry and then Dako fluorescence mounting medium (Agilent) was applied, followed by coverslips.
Confocal images of immunofluorescent staining were acquired with a Zeiss LSM880 confocal microscope equipped with 405, 488, 555, and 639 nm laser lines. All images were taken within the linear range at constant gain and pinhole settings at optimal resolution settings determined by the software. For primary cortical neurons and iPSC-derived dopaminergic neurons, the software was programmed to acquire an image every 1 μm for a total of 11 μm, capturing all of the neurons visible in the z-plane in each field of view using a ×63 objective. At least 30 images were acquired for each treatment group from three independent experiments. For animal experiments, the whole midbrain or striatum regions were imaged using a ×5 or ×10 objective. Ten serial coronal midbrain sections were imaged per animal, separated by 240 μm intervals. […]
Confocal images of immunofluorescent staining of midbrain sections were processed using HALO software (Indica Labs), which is a well validated tool for automatic quantification of neurons in brain tissue sections[70]–[72]. […] Fluorescent intensity and area were then assessed in this ROI.

[1] = system: endogenous a-syn in SNCA triplication fibroblasts; test: a-syn immunofluorescence in SNCA triplication fibroblasts; assay type: cell-based, human
From the text: Fig. 6 PDpep1.3 reduces endogenous a-syn levels and rescues lysosomal activity in human PD cell models. A Representative images of fibroblasts from a PD patient with SNCA triplication transduced with Scramble1.3-RFP or PDpep1.3-RFP (scale bars = 10 µm). B Quantification of relative a-syn fluorescence in RFP-positive fibroblasts. Bars represent means ± s.e.m. (one-way ANOVA, F(3, 36) = 6.159; P = 0.0017 followed by Dunnett’s post-test; n = 3). C Endolysosomal flux assay using confocal microscopy in SNCA triplication fibroblasts transduced with AAV-Scramble1.3-RFP or AAV-PDpep1.3-RFP. Cells were treated as indicated with Bafilomycin A1 (Baf). Bars represent means ± s.e.m. (nested one-way ANOVA, F(3, 10) = = 23.70; P < 0.0001 followed by Dunnett’s post-test; n = 3). D Representative images of human iPSC-derived dopaminergic neurons with A53T a-syn mutation or isogenic controls without a-syn mutation. These iPSC-derived dopaminergic neurons were transduced with Scramble1.3-RFP or PDpep1.3-RFP and immunostained with anti-a-syn, anti-TH, or anti-LAMP1 antibodies (scale bars = 5 μm). E Quantification of relative a-syn fluorescence intensity in RFP-positive A53T mutant and control iPSC-derived dopaminergic neurons. Bars represent means ± s.e.m. […] F Quantification of relative LAMP1 fluorescence intensity in RFP-positive A53T mutant and control iPSC-derived dopaminergic neurons. […]

## DEEIERQLKALG [PDpep1.3]
V1S/SV2 a-syn rats; 6 weeks post-injection, SN
  Effect on a-syn oligomer levels, YFP positive area: significant reduction in a-syn oligomer levels
V1S/SV2 a-syn rats; V1S/SV2, 6 weeks, individual rats
  TH fluorescence in striatum: 0.2276 and 0.1447 and 0.1385 and 0.1997 and 0.2935 and 0.176 and 0.1626 and 0.2047 and 0.2584 and 0.2974
V1S/SV2 a-syn rats; V1S/SV2, 6 weeks, n = 8–9 rats/group
  YFP mean fluorescence intensity in TH+ and RFP+ SN cells: 0.063 ± 0.0167 RFU
V1S/SV2 a-syn rats; V1S/SV2 rats
  Effect on pS129 a-syn in striatum: reduced pS129 a-syn accumulation in the striatum
[1]
  Effect on a-syn fluorescence in fibroblasts: reduced a-syn fluorescence
[1]; + Bafilomycin A1
  Effect on a-syn levels in presence of Bafilomycin A1: could not reduce a-syn levels
